For 12 molecules, TGI and GI50 results are on record in PubChem BioAssay (NCI).

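These data come from cells grown in 96-well plates and exposed to compound for 48 hours at five concentrations. Abbreviation: GI50, concentration required for 50% inhibition of growth. The concentration for full growth arrest is given as TGI.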

Holding throughout (test): inhibition of tumour cell growth, NCI panel, 48 h
Assay [1] deals with U251 CNS.
Assay [2] concerns COLO 205 colon.
The subject of assay [3] is NCI/ADR-RES ovarian.
Assay [4] has as its system SNB-75 CNS.
The subject of assay [5] is OVCAR-8 ovarian.
Assay [6] has as its system UO-31 renal.
The test system of assay [7] is MDA-MB-231 breast.
For assay [8], the system named is MCF7 breast.
Assay [9] relates to A498 renal.
Assay [10] deals with KM12 colon.

Consider `Cc1ccc(C(=O)C2CC3(CCC2(O)c2ccc(C)cc2)CC(=O)Nc2ccccc2C3=O)cc1` (configuration not stated), for which the TGI in [1] is > 100 µM; in assay [2] it was > 100 µM; in [3] it was > 100 µM; in [4], 93.5 µM; in assay [5], > 100 µM; in assay [6], > 100 µM. Moreover, the TGI in assay [7], in [8] and in [9] was > 100 µM throughout.
`CCOC(=O)C(NC(=O)c1cccc(Cl)c1)(N1CCN(c2cc3c(cc2F)c(=O)c(C(=O)O)cn3CC)CC1)C(F)(F)F` (configuration not stated): the TGI in [10] is 25.2 µM; in assay [1] it was 20.9 µM; in assay [2], 32 µM; in assay [3], > 100 µM; in assay [4], 61.2 µM; in assay [5], 46.7 µM. The TGI in assay [6] worked out at 46.6 µM; in assay [7] it was 36.3 µM; in assay [8], 37.2 µM; in assay [9], 51 µM.
As to `Nc1nc2c(ccc3ccccc32)[nH]1`, the TGI in [10], in [1], in assay [2], in assay [3], in [4] and in [5] was > 10 µM throughout. The TGI in assay [6], in assay [7], in assay [8] and in assay [9] was > 10 µM in each case.
On to `CC(=O)OCc1cc2c(s1)C(=O)c1sccc1C2=O`, for which the TGI in assay [10] stood at 0.562 µM; in [1], 0.706 µM; in [2], 3.03 µM; in assay [3] it was 0.413 µM; in assay [4], 0.12 µM; in [5] it was 0.576 µM. The TGI was 0.391 µM in assay [6], 0.692 µM in assay [7], 0.416 µM in assay [8] and 3.23 µM in assay [9].
Regarding `CCCSC1=N/C(=C\c2ccco2)C(=O)N1`, the TGI in [10], in [1], in assay [2], in [3], in assay [4] and in [5] was > 100 µM in each case. Also, the TGI in assay [6], in [7], in assay [8] and in assay [9] was > 100 µM each time.
Take `CCc1nc2cc(F)ccc2[nH]c1=O`: the TGI in assay [10], in assay [1], in [2], in assay [3], in assay [4] and in assay [5] was > 100 µM in each case. For the same molecule, the TGI in assay [6], in [7], in assay [8] and in [9] was > 100 µM each time.
For the molecule `CSC(=NCCCN=C(NS(=O)(=O)c1ccc(Cl)cc1)SC)NS(=O)(=O)c1ccc(Cl)cc1`, the TGI in assay [1] is > 100 µM; in assay [2], 51.6 µM; in [3], > 100 µM; in assay [4], > 100 µM; in assay [5] it was > 100 µM; in [6], 40.5 µM. Moreover, the TGI in assay [7] is > 100 µM; in assay [8] it was 52.8 µM; in assay [9] it was 73.1 µM.
As to `CC(C)S1=C2C(=O)CC(C)(C)CC2=Nc2ccccc21` (configuration not stated), the TGI in assay [10], in assay [1], in [2], in assay [3], in assay [4] and in [5] was > 100 µM throughout. Moreover, the TGI in [6], in [7], in [8] and in [9] was > 100 µM in each case.
Regarding `CN(C)c1ccc(/C=C2\CCCCCC2=O)cc1`, the TGI in assay [10], in assay [2], in assay [3], in [4], in assay [5] and in [6] was > 100 µM in each case. The TGI in [7], in assay [8] and in [9] was > 100 µM throughout.
Turning to `Cc1cc(N(CCCl)CCCl)ccc1/C=N\NC(=O)c1cccnc1`, the GI50 in assay [10] is 34.4 µM; in assay [1] it was 21.6 µM; in [2], 19.1 µM; in assay [3], 13.7 µM; in assay [4], 25.5 µM; in [5] it was 25.9 µM. Also, the GI50 in assay [6] is 21.6 µM; in assay [7], 29.3 µM; in assay [8], 16.8 µM; in assay [9] it was 1.42 µM. Also, the TGI in assay [10] is > 100 µM; in assay [1], > 100 µM; in assay [2] it was 85.3 µM; in assay [3], 48.7 µM; in [4], > 100 µM; in assay [5] it was > 100 µM. The TGI in assay [6] was 82.7 µM; in assay [7], > 100 µM; in assay [8], > 100 µM; in [9], 2.92 µM.
Take `O=C1Cc2c(-c3ccccc3)cc(-c3ccc(Cl)cc3)nc2-c2ccccc2N1`: the TGI in [10] came to 96.1 µM; in assay [1] it was 10.5 µM; in [2] it was 18 µM; in assay [3] it was 14.8 µM; in assay [4], 8.77 µM; in assay [5], 9.09 µM. Also, the TGI is 7.31 µM in assay [6], 19.2 µM in [7], > 72.2 µM in assay [8] and 3.67 µM in assay [9].
As for `Cc1nnc(N)s/c1=N/O`, the TGI in assay [10], in assay [1], in [2], in [3], in [4] and in [5] was > 100 µM in each case. In addition, the TGI in assay [6], in assay [7], in assay [8] and in [9] was > 100 µM each time.
